Test results: patent publication EP4174174A1, “TAILOR-MADE EXTREMOPHILIC FUNGAL LACCASES” (priority 2021, dated 2023)
Where two headings read alike, the source gives them in different places.

Key:
Assay type in all cases: biochemical
[1] = target: RY2 laccase variant L2 (+F460M; F392N, F396I, F460M) (basidiomycete PM1, UniProt Q12571, F413N/F417I/F481M, form not given)
Protocol: (§1) Flask production and purification. The S. cerevisiae clones expressing selected laccase variants were grown in duplicate, in 100mL flasks with 30mL expression medium (containing […] and 3% ethanol) (Camarero et al. Applied and Environmental Microbiology 2012, 78,5). […] After 3 days of fermentation, cultures were treated as previously described (De Salas et al. Green Chemistry 2019 21, 5374-5385). Purification of the enzymes by High Pressure Liquid Chromatography (HPLC) was carried out in 3 chromatographic steps: two anion exchange steps using a HiPrep-QFF 16/10 column in a 100mL gradient of 0-40% elution buffer, and a MonoQ-HR 5/5 column in a 30mL gradient of 0-25% elution buffer, followed by size exclusion chromatography with a Superdex75. Fractions containing laccase activity (with 3mM ABTS in 50mM citrate-phosphate pH 3) were pooled, dialyzed in Tris-HCI pH 7 and concentrated after each chromatographic step. Enzyme purification was confirmed by the electrophoretic mobility in SDS-PAGE (12% acrylamide) stained with Coomassie brilliant blue.
(§2) To calculate Km and kcat values the average Vmax was represented versus substrate concentration and fitted to a single rectangular hyperbola function in SigmaPlot (version 14.0) software, where parameter "a" was equal to kcat and parameter "b" was equal to Km.

[2] = target: RY2 laccase (parental enzyme, SEQ ID NO: 1) (basidiomycete PM1, UniProt Q12571)
Protocol: as §1, §2

[3] = system: RY2 laccase variant L3 (+D263V; F392N, F396I, F460M, D263V); test: Kinetic constants for the oxidation of ABTS and DMP by pure laccase
Protocol: as §1, §2

[4] = system: RY2 laccase variant L4 (+A458L; F392N, F396I, F460M, D263V, A458L); test: as above
Protocol: as §1, §2

Chain of RY2 laccase variant L2 (+F460M; F392N, F396I, F460M) (Q12571 entry or part of it F413N/F417I/F481M, form open): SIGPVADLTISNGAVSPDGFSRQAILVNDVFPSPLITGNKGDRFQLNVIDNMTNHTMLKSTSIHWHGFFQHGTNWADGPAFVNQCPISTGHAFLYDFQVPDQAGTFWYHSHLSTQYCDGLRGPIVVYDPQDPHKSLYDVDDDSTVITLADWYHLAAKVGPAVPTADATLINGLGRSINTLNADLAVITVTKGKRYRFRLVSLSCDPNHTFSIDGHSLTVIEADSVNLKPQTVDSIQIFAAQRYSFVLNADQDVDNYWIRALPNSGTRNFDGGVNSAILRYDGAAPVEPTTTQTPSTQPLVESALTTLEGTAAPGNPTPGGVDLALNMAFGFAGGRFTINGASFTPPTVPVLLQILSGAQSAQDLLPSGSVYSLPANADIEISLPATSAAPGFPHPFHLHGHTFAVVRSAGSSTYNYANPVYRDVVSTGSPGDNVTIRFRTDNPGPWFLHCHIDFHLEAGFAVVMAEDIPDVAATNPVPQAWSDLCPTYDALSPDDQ
Chain of RY2 laccase (parental enzyme, SEQ ID NO: 1) (Q12571 entry or part of it): as the sequence (Q12571 entry or part of it F413N/F417I/F481M, form open) above

## CCn1c(=NN=c2sc3cc(S(=O)(=O)O)ccc3n2CC)sc2cc(S(=O)(=O)O)ccc21 [ABTS]
[1]; substrate ABTS, pH 3
  kcat: 231 ± 5.6 s⁻¹
[2]; substrate ABTS, pH 3
  kcat: 543 ± 17 s⁻¹
[3]; substrate ABTS, pH 3
  Km: 460 ± 40 µM
  kcat: 123 ± 5.5 s⁻¹
[4]; substrate ABTS, pH 3
  Km: 680 ± 40 µM
  kcat: 136 ± 2.7 s⁻¹

## COc1cccc(OC)c1O [DMP, 2,6-dimethoxyphenol]
[1]; substrate DMP, pH 8
  kcat: 89 ± 6.2 s⁻¹
[1]; substrate DMP, pH 9
  kcat: 9.5 ± 0.1 s⁻¹
[2]; substrate DMP, pH 5
  kcat: 123 ± 6 s⁻¹
[3]; substrate DMP, pH 8
  Km: 1500 ± 120 µM
  kcat: 82.3 ± 7.6 s⁻¹
[3]; substrate DMP, pH 9
  Km: 300 ± 30 µM
  kcat: 21.7 ± 1.3 s⁻¹
[3]; substrate DMP, pH 10
  Km: 27 ± 1 µM
  kcat: 0.79 ± 0.03 s⁻¹
[4]; substrate DMP, pH 8
  Km: 1710 ± 100 µM
[4]; substrate DMP, pH 9
  Km: 430 ± 10 µM
  kcat: 26 ± 0.28 s⁻¹
[4]; substrate DMP, pH 10
  Km: 22 ± 2 µM
  kcat: 2 ± 0.05 s⁻¹
